Reference: ChEMBL document CHEMBL5052826, “Kif18a inhibitors” (2020)

The molecules below were run against T1, Kinesin-like protein KIF18A (Homo sapiens, UniProt Q8NI77) (assay: Inhibition of recombinant His-tagged human KIF18A (1 to 467 residues) expressed in baculovirus expression system assessed as inhibition of microtubule-stimulated ATPase activity preincubated for 15 mins followed by ATP addition and further incubated for 15 mins and measured after 40 mins by ADP-Glo reagent based assay).
T1 sequence (Q8NI77 whole entry): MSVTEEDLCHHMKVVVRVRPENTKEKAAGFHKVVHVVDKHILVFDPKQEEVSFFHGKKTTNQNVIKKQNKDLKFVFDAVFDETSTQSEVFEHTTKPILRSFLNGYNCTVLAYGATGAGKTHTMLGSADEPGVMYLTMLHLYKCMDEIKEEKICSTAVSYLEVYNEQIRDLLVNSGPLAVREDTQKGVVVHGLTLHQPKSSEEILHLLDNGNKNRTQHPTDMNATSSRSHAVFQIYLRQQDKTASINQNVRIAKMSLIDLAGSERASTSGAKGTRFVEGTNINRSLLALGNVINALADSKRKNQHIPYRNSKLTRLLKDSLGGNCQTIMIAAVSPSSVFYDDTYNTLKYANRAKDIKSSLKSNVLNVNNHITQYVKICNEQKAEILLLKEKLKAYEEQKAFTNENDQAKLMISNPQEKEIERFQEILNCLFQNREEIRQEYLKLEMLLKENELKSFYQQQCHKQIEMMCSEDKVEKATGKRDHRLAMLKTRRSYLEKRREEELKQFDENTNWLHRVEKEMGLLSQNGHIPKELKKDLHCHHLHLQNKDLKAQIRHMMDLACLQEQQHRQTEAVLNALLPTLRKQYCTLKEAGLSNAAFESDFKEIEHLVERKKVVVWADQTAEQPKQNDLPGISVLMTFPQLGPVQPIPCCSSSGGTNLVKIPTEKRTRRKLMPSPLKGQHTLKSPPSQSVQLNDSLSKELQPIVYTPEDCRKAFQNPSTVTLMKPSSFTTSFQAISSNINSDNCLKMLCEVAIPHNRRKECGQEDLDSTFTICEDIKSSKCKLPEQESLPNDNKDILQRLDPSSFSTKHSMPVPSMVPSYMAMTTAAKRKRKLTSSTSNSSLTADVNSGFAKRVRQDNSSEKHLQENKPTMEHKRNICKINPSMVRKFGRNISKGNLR
An IC50 of 151 nM was found for Cc1cc(NC(=O)c2ccc(NS(=O)(=O)C[C@H](C)O)cc2N2CCC3(CC2)CC3)nc(N2CCO[C@H](C)C2)n1 in this work. An IC50 of 57 nM was found for Cc1cc(NC(=O)c2ccc(S(=O)(=O)[C@@H](C)CO)cc2N2CCC3(CC2)CC3)nc(N2CCC(F)(F)CC2)n1 in this work. An IC50 of 64 nM was found for Cc1cc(NC(=O)c2ccc(S(=O)(=O)[C@H](C)CO)cc2N2CCC3(CC2)CC3)nc(N2CCC(F)(F)CC2)n1 in this work. An IC50 of 186 nM was found for Cc1cc(NC(=O)c2ccc(S(C)(=O)=O)cc2N2CCC3(CC2)CC3)nc(NC(C)(C)CO)n1 in this work.
